Test results reported in US7601716B2, “Pyridopyrazines and derivatives thereof as ALK and c-Met inhibitors” (Cephalon, Inc., priority 2006, dated 2009).

Legend:
[1] = target: T1, c-Met (cytoplasmic domain) (Homo sapiens, UniProt P08581); test: c-Met Kinase Assay (ELISA/TRF, PLC-γ substrate); format: biochemical; settings: 3 μM ATP (Km level); read-out: c-Met Kinase Inhibition (IC50)
T1 construct: Reactions were initiated with 30 ng/mL c-Met (cytoplasmic domain, Invitrogen Corporation #PV3143); purchased Invitrogen Corporation PV3143
Summary of the method: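 c-Met cytoplasmic domain (30 ng/mL) phosphorylates plate-coated GST–PLC-γ for 15 min at 37 °C. Phosphotyrosine detected with Eu-labeled PT66 antibody by time-resolved fluorescence. IC50 from variable-slope sigmoidal fit of % inhibition vs log concentration.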

[2] = target: baculovirus-expressed ALK (Homo sapiens, UniProt Q9UM73); test: ALK Kinase Assay (ELISA/TRF, PLC-γ substrate); format: biochemical; settings: read-out: ALK Kinase Inhibition (IC50); note: 1 µM ATP (Km level)
Summary of the method: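 Plates coated with GST-PLC-γ substrate (10 µg/mL in TBS), then reaction started with 30 ng/ml baculovirus-expressed ALK, 15 min at 37 °C. Phosphotyrosine detected by Eu-labeled PT66 antibody and time-resolved fluorescence. IC50 from variable-slope sigmoidal fit of percent inhibition versus log concentration.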

T1 sequence (P08581 956-1390 limits assumed): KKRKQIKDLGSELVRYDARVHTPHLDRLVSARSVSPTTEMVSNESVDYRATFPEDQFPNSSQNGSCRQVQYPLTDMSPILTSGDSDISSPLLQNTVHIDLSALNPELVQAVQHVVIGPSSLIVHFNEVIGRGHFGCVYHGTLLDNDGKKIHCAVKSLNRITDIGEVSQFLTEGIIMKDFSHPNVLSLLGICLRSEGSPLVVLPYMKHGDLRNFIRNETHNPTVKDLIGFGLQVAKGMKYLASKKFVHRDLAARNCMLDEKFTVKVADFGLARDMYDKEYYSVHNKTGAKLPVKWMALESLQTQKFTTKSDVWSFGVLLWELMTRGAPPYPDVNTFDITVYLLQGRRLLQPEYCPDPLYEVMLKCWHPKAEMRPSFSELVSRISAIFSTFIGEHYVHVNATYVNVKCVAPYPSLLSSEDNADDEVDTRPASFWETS
Chain of baculovirus-expressed ALK (Q9UM73 19-1620): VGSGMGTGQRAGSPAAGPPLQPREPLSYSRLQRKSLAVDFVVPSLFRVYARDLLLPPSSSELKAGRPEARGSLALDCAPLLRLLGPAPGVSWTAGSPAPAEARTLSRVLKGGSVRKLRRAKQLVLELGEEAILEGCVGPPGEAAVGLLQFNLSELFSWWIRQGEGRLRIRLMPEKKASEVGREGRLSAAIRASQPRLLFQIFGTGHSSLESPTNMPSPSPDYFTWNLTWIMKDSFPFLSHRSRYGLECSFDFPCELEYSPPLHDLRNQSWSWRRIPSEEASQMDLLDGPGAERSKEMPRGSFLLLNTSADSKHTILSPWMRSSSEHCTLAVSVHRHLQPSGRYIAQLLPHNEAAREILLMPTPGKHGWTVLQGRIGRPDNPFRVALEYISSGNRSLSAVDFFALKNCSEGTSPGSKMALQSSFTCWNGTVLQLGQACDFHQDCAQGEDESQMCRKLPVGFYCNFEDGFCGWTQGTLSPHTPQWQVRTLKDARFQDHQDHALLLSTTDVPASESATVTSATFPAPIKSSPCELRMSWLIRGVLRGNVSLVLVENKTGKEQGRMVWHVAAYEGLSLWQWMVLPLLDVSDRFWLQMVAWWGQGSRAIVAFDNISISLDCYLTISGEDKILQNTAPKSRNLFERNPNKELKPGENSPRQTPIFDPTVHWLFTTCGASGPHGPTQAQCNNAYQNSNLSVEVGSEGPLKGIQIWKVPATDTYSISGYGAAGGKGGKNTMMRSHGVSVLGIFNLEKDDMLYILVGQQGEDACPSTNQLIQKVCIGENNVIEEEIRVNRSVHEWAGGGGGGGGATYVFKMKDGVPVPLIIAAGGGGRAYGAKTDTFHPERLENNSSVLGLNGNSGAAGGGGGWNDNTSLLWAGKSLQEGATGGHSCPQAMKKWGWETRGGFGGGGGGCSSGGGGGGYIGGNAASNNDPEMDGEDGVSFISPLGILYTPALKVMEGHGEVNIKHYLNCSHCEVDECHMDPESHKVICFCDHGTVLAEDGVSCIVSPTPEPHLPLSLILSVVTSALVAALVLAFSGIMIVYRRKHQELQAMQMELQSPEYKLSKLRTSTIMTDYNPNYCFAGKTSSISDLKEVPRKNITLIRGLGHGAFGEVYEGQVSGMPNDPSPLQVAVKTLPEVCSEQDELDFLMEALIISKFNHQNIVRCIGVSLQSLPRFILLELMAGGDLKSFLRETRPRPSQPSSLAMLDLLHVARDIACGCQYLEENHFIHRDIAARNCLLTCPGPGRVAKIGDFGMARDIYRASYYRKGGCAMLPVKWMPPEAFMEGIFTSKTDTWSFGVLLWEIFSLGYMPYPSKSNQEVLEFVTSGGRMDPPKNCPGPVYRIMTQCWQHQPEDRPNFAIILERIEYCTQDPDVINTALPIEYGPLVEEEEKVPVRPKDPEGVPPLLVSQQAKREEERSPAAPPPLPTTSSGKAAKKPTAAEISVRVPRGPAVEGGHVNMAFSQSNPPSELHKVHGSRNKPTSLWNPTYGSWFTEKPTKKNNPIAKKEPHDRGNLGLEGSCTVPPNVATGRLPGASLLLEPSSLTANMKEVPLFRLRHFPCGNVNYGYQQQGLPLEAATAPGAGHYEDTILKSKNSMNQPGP

Row | Compound | IC50 [1] [µM] | melting point | IC50 [2] [µM]
1 | O=C(O)c1ccc(-c2cnc3c(c2)N(Cc2ccccc2OC(F)(F)F)CCN3)cc1 [Example 298, 4-{1-[2-(Trifluoromethoxy)benzyl]-1,2,3,4-tetrahydropyrido[2,3-b]pyrazin-7-yl}benzoic acid] | > 100 | 250 °C | 1 to 10
2 | CCOC(=O)c1ccc(-c2cnc3c(c2)N(Cc2ccccc2OC(F)(F)F)CCN3)cc1 [Example 297, 4-{1-[2-(Trifluoromethoxy)benzyl]-1,2,3,4-tetrahydropyrido[2,3-b]pyrazin-7-yl}benzoic acid ethyl ester] | > 100 | 153 °C | 1 to 10
3 | O=C1CNc2ncc(-c3cccnc3)cc2N1Cc1ccccc1 [Example 11, 1-Benzyl-7-pyridin-3-yl-3,4-dihydro-1H-pyrido[2,3-b]pyrazin-2-one] | 10 to 100 | 58 °C | 10 to 100
4 | O=C(O)c1ccc(-c2cnc3c(c2)N(Cc2cc(F)ccc2F)C(=O)CN3)cc1 [Example 56, 4-[1-(2,5-Difluorobenzyl)-2-oxo-1,2,3,4-tetrahydropyrido[2,3-b]pyrazin-7-yl]benzoic acid] | 10 to 100 | > 300 °C | 1 to 10
5 | O=C(O)c1cncc(-c2cnc3c(c2)N(Cc2cc(F)ccc2F)CCN3)c1 [Example 74, 5-[1-(2,5-Difluorobenzyl)-1,2,3,4-tetrahydropyrido[2,3-b]pyrazin-7-yl]-nicotinic acid] | 10 to 100 | 255 to 260 °C | 10 to 100
6 | O=C1CNc2ncc(I)cc2N1Cc1ccccc1 [Example 8, 1-Benzyl-7-iodo-3,4-dihydro-1H-pyrido[2,3-b]pyrazin-2-one] | > 100 | 225 °C | 10 to 100
7 | O=S1(=O)CCN(CC#Cc2cnc3c(c2)N(Cc2cc(Cl)ccc2Cl)CCN3)CC1 [Example 174, 1-(2,5-Dichlorobenzyl)-7-[3-(1,1-dioxo-1λ^6-thiomorpholin-4-yl)prop-1-ynyl]-1,2,3,4-tetrahydropyrido[2,3-b]pyrazine] | 10 to 100 | > 200 °C | 0.1 to 1
8 | O=C1CNc2ncc(I)cc2N1Cc1ccc(C(F)(F)F)o1 [Example 290, 7-Iodo-1-[5-(trifluoromethyl)furan-2-ylmethyl]-3,4-dihydro-1H-pyrido[2,3-b]pyrazin-2-one] | > 100 | 189 to 191 °C | 10 to 100
9 | O=C1CNc2ncc(I)cc2N1Cc1cc(F)c(F)cc1F [Example 81, 7-Iodo-1-(2,4,5-trifluorobenzyl)-3,4-dihydro-1H-pyrido[2,3-b]pyrazin-2-one] | > 100 | 227 to 228 °C | > 100
10 | O=C1CNc2ncc(I)cc2N1Cc1cccnc1Cl [Example 299, 1-(2-Chloropyridin-3-ylmethyl)-7-iodo-3,4-dihydro-1H-pyrido[2,3-b]pyrazin-2-one] | > 100 | 249 °C | 1 to 10
11 | O=C1CNc2ncc(I)cc2N1 [Example 2, 7-Iodo-3,4-dihydro-1H-pyrido[2,3-b]pyrazin-2-one] | > 100 | 81 °C | > 100
12 | Fc1ccc(F)c(CN2CCNc3ncc(-c4ccc(N5CCOCC5)cc4)cc32)c1Cl [Example 108, 1-(2-Chloro-3,6-difluorobenzyl)-7-(4-morpholin-4-yl-phenyl)-1,2,3,4-tetrahydropyrido[2,3-b]pyrazine] | 10 to 100 | 217 to 219 °C | < 0.1
13 | N#Cc1ccc(-c2cnc3c(c2)N(Cc2cc(F)ccc2F)CCN3)cn1 [Example 71, 5-[1-(2,5-Difluorobenzyl)-1,2,3,4-tetrahydropyrido[2,3-b]pyrazin-7-yl]-pyridine-2-carbonitrile] | > 100 | 200 °C (dec.) | 0.1 to 1
